The subject of test [1] is ZR-75-1 cells. The experiment in a line: Proliferation assay ZR-75-1 (Alamar Blue, 144 h). It is filed as cell-based. The settings on record: arithmetic mean, read-out: ZR75-1 proliferation assay, EC50 [M] (arithmetic mean). The essentials: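 Alamar Blue fluorescence (590 nm, 2 h reagent step) measured viability after 144 h compound exposure at 37 °C, 5% CO2. Compounds spanned 2.0×10E-5 to 2.0×10E-9 M in 9 dilutions at 0.2% DMSO, in triplicate, added 24 h after plating 3000 cells/well in RPMI 1640 plus 2.5% FBS.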

The subject of test [2] is ESR1 transcription (luciferase signal in MVLN cells). Kind of test: Repression of ESR1 transcription, luciferase reporter in MVLN cells. To be noted: inhibition of luciferase signal in MVLN cells, arithmetic mean. Format: cell-based. The essentials: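 Luminescence from an ER-driven Vitellogenin A2 element–luciferase reporter was measured after 24 h of treatment of MVLN cells, in duplicate wells. Alamar Blue (2 h, 530/590 nm) served as a cell-density control.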
Background: A reporter such as luciferase makes a cellular process visible.

The target in test [3] is Recombinant human His-tagged Kat6a protein (amino acids 194-810) (Homo sapiens (Human), UniProt Q92794). The experiment in a line: Kat6a activity assay (TR-FRET, acetylation of biotinylated Histone-H4-derived peptide). Format: biochemical. To be noted: 60 mins at 22° C., read-out: KAT6A-DPF/HAT domain IC50 [mol/l] (arithmetic mean). The essentials:
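TR-FRET read-out of H4 K8 acetylation, using anti-acetyl-K8 antibody and streptavidin acceptor, after anacardic acid stop; IC50 from four-parameter regression normalized to DMSO. Reaction: recombinant human Kat6a aa 194-810 (insect-cell derived), 220 nM H4 1-24 peptide, 600 nM acetyl-CoA, pH 8, 22 °C, 60 min, compounds 0.01-20 μM.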
On the technique in general: TR-FRET usually uses a lanthanide donor and a delayed reading to cut background.

Test [4] concerns MDA-MB-436 cells. The experiment in a line: Proliferation assay MDA-MB-436, negative control cell line (Alamar Blue, 144 h). It is filed as cell-based. The settings on record: arithmetic mean. The essentials:
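Viability read as Alamar Blue fluorescence (590 nm, 2 h) after 144 h compound exposure at 37 °C, 5% CO2. Cells seeded at 3000 per well in 2.5% FBS DMEM/Ham's F12, dosed a day later over 2.0×10E-9–2.0×10E-5 M in 9 steps with 0.2% DMSO, in triplicate.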

The target of test [5] is Recombinant human GST-tagged Kat6b protein (431-end). The experiment in a line: Kat6b activity assay (TR-FRET, acetylation of biotinylated Histone-H4-derived peptide). It is filed as biochemical. The settings on record: 30 mins at 22° C., read-out: KAT6B activity assay IC50 [mol/l] (arithmetic mean).
The mark [6] stands for this setting: Homo sapiens, MDA-MB-436, 144 h.

Structures are written as SMILES. pIC50: −log10 of the molar value. Like-named read-outs stand apart in the source and are kept apart here.

Chain of Recombinant human His-tagged Kat6a protein (amino acids 194-810) (Q92794 194-810): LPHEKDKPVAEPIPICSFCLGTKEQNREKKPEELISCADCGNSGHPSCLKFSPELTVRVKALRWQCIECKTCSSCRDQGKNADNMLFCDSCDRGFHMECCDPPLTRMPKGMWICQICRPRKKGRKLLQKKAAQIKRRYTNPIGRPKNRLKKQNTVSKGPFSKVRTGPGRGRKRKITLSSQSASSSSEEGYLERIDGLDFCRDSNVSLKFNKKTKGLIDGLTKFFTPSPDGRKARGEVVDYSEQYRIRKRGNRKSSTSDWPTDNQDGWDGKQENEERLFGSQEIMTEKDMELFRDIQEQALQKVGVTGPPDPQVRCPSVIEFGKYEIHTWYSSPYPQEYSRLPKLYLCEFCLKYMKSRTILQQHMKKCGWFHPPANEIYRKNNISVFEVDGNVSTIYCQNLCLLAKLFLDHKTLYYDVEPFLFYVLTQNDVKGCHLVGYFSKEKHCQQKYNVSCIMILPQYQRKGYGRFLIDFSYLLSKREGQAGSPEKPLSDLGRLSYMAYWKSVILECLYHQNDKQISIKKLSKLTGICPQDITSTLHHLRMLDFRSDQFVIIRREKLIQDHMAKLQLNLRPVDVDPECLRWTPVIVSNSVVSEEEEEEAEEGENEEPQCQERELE

A word on the IC50: it is the point on the concentration scale where inhibition reaches its midpoint. For `CCCCN(CCCC)c1ccc2cc(C(=O)NS(=O)(=O)c3ccccc3-c3ccccc3)oc2c1` [Example 41, N-([1,1′-Biphenyl]-2-sulfonyl)-6-(dibutylamino)-1-benzofuran-2-carboxamide], the EC50 is 8.3e-06 M in test [1] (Homo sapiens, ZR-75-1, 144 h) and 18500 nM in test [4] (setting [6]). This compound also showed an IC50 in test [2] (Homo sapiens, MVLN) of 14900 nM. The pIC50 was 5.64 in test [3] and 5.59 in test [5].
In the case of `CCOc1cccc(-c2ccccc2)c1S(=O)(=O)NC(=O)c1cc2ccc(N(C)C)cc2o1` [Example 80, 6-(Dimethylamino)-N-(3-ethoxy[1,1′-biphenyl]-2-sulfonyl)-1-benzofuran-2-carboxamide], the EC50 in test [1] (Homo sapiens, ZR-75-1, 144 h) is 3.29e-07 M; in test [4] (setting [6]), over 20000 nM. Half-maximal inhibition in test [2] (Homo sapiens, MVLN) (IC50) was put at 172 nM. Moreover, the pIC50 is 7.13 in test [3] and 7.16 in test [5].
In the same order, the values of `Cc1ccc2cccc(S(=O)(=O)NC(=O)c3cc4ccc(N(C)C)cc4o3)c2n1` [Example 225] are 7.21e-08 M, over 20000 nM, 36.2 nM, 7.64 and 7.59.
The corresponding values for `CN(C)c1ccc2cc(C(=O)NS(=O)(=O)c3cccc4ccc(Cl)nc34)oc2c1` [Example 126, N-(2-Chloroquinoline-8-sulfonyl)-6-(dimethylamino)-1-benzofuran-2-carboxamide] are 6.98e-08 M, over 20000 nM, 30.6 nM, 7.69 and 7.62.
Take `CN(C)c1ccc2cc(C(=O)NS(=O)(=O)C3CCOCC3)oc2c1` [Example 28, 6-(Dimethylamino)-N-(oxane-4-sulfonyl)-1-benzofuran-2-carboxamide]: the EC50 was 4.73e-06 M in test [1] (Homo sapiens, ZR-75-1, 144 h) and over 20000 nM in test [4] (setting [6]). In addition, the IC50 in test [2] (Homo sapiens, MVLN) is over 20000 nM. Further, the pIC50 in test [3] was 5.26; in test [5] it was 5.57.
In the case of `CN(C)c1ccc2cc(C(=O)NS(=O)(=O)c3c(F)cccc3OC3CCC3)oc2c1` [Example 142, N-[2-(Cyclobutyloxy)-6-fluorobenzene-1-sulfonyl]-6-(dimethylamino)-1-benzofuran-2-carboxamide], the EC50 in test [1] (Homo sapiens, ZR-75-1, 144 h) was 4.37e-07 M; in test [4] (setting [6]), over 20000 nM. In test [2] (Homo sapiens, MVLN), this compound had an IC50 of 166 nM. The figures for the pIC50 in test [3] and in test [5] were 6.86 and 6.64, respectively.
The corresponding values for `CN(C)c1ccc2cc(C(=O)NS(=O)(=O)c3ccccc3C(=O)O)oc2c1` [Example 36, 2-{[6-(Dimethylamino)-1-benzofuran-2-carbonyl]sulfamoyl}benzoic acid] are 1.04e-05 M, over 20000 nM, 4030 nM, 6.64 and 6.77.
Regarding `CN(C)c1cc(C(F)(F)F)c2cc(C(=O)NS(=O)(=O)c3ccccc3-c3ccccc3)oc2c1` [Example 193, N-([1,1′-biphenyl]-2-ylsulfonyl)-6-(dimethylamino)-4-(trifluoromethyl)benzofuran-2-carboxamide], the EC50 is 6.55e-06 M in test [1] (Homo sapiens, ZR-75-1, 144 h) and over 20000 nM in test [4] (setting [6]). In addition, the IC50 in test [2] (Homo sapiens, MVLN) turned out to be 1690 nM. Moreover, the pIC50 in test [3] is 8.15; in test [5] it was 7.89.
The corresponding values for `CCOc1ccc([N+](=O)[O-])cc1S(=O)(=O)NC(=O)c1cc2ccc(N(C)C)cc2o1` [Example 88, 6-(Dimethylamino)-N-(2-ethoxy-5-nitrobenzene-1-sulfonyl)-1-benzofuran-2-carboxamide] are 3.2e-07 M, 4650 nM, 256 nM, 6.98 and 6.69.
In the same order, the values of `CN(C)c1ccc2cc(C(=O)NS(=O)(=O)c3ccccc3OC3CC3)oc2c1` [Example 65, N-[2-(Cyclopropyloxy)benzene-1-sulfonyl]-6-(dimethylamino)-1-benzofuran-2-carboxamide] are 4.44e-08 M, over 20000 nM, 20.4 nM, 7.55 and 7.46.
In the same order, the values of `Nc1ccc2cc(C(=O)NS(=O)(=O)c3ccccc3-c3ccccc3)oc2c1` [Example 42, 6-Amino-N-([1,1′-biphenyl]-2-sulfonyl)-1-benzofuran-2-carboxamide] are over 2e-05 M, over 20000 nM, over 20000 nM, 5.97 and 5.44.
Turning to `CC(=O)Nc1ccc2cc(C(=O)NS(=O)(=O)c3ccccc3-c3ccccc3)oc2c1` [Example 43, 6-Acetamido-N-([1,1′-biphenyl]-2-sulfonyl)-1-benzofuran-2-carboxamide], the EC50 in test [1] (Homo sapiens, ZR-75-1, 144 h) is over 2e-05 M; in test [4] (setting [6]) it was over 20000 nM. The same compound showed an IC50 in test [2] (Homo sapiens, MVLN) of over 20000 nM. The pIC50 in test [3] is 5.29; in test [5] it was 4.99.
For the compound `CCc1cccc(OC)c1S(=O)(=O)NC(=O)c1cc2ccc(N(C)C)cc2o1` [Example 147, 6-(Dimethylamino)-N-(2-ethyl-6-methoxybenzene-1-sulfonyl)-1-benzofuran-2-carboxamide], the EC50 was 7.83e-08 M in test [1] (Homo sapiens, ZR-75-1, 144 h) and over 20000 nM in test [4] (setting [6]). The compound further yielded an IC50 in test [2] (Homo sapiens, MVLN) of 86.8 nM. In addition, the values for the pIC50 in test [3] and in test [5] were 7.01 and 7.16, respectively.
With `COc1ccc(Cn2cccn2)cc1S(=O)(=O)NC(=O)c1cc2ccc(N(C)C)cc2o1` [Example 86, 6-(Dimethylamino)-N-{2-methoxy-5-[(1H-pyrazol-1-yl)methyl]benzene-1-sulfonyl}-1-benzofuran-2-carboxamide], the EC50 in test [1] (Homo sapiens, ZR-75-1, 144 h) is 1.57e-07 M; in test [4] (setting [6]), over 20000 nM. In test [2] (Homo sapiens, MVLN), the midpoint of inhibition, the IC50, lay at 235 nM. For the same compound, the pIC50 in test [3] was 7.19; in test [5], 7.10.
In the same order, the values of `CCOc1ccccc1S(=O)(=O)NC(=O)c1cc2c(C(F)(F)F)cc(N(C)C)cc2o1` [Example 195, 6-(Dimethylamino)-N-((2-ethoxyphenyl)sulfonyl)-4-(trifluoromethyl)benzofuran-2-carboxamide] are 8.71e-07 M, over 20000 nM, 716 nM, 8.24 and 7.83.
In the same order, the values of `COc1ccc(Cl)c(S(=O)(=O)NC(=O)c2cc3ccc(N(C)C)cc3o2)c1` [Example 139, N-(2-Chloro-5-methoxybenzene-1-sulfonyl)-6-(dimethylamino)-1-benzofuran-2-carboxamide] are 7.07e-07 M, over 20000 nM, 1370 nM, 6.48 and 6.43.
With `CC(C)Oc1ccccc1S(=O)(=O)NC(=O)c1cc2ccc(N(C)C)cc2o1` [Example 66, 6-(Dimethylamino)-N-{2-[(propan-2-yl)oxy]benzene-1-sulfonyl}-1-benzofuran-2-carboxamide], the EC50 was 5.47e-08 M in test [1] and over 20000 nM in test [4]. Also, the IC50 in test [2] was determined as 31 nM. Moreover, the pIC50 in test [3] was 7.31; in test [5] it was 7.23.
For the compound `COc1ccc(Br)cc1S(=O)(=O)NC(=O)c1cc2ccc(N(C)C)cc2o1` [Example 148, N-(5-Bromo-2-methoxybenzene-1-sulfonyl)-6-(dimethylamino)-1-benzofuran-2-carboxamide], the EC50 is 1.28e-07 M in test [1] (Homo sapiens, ZR-75-1, 144 h) and over 20000 nM in test [4] (setting [6]). In addition, in test [2] (Homo sapiens, MVLN), the IC50 came to 121 nM. Also, the values for the pIC50 in test [3] and in test [5] were 6.98 and 7.17, respectively.
`CN(C)c1ccc2cc(C(=O)NS(=O)(=O)c3ccccc3OCC3CC3)oc2c1` [Example 71, N-[2-(Cyclopropylmethoxy)benzene-1-sulfonyl]-6-(dimethylamino)-1-benzofuran-2-carboxamide]: the EC50 is 1.92e-07 M in test [1] (Homo sapiens, ZR-75-1, 144 h) and over 20000 nM in test [4] (setting [6]). In test [2] (Homo sapiens, MVLN), this compound registered an IC50 of 71.9 nM. The results for the pIC50 in test [3] and in test [5] were 7.14 and 6.88, respectively.
In the same order, the values of `CN(C)c1ccc2cc(C(=O)NS(=O)(=O)c3ccccc3OC(C)(C)C)oc2c1` [Example 68, N-(2-tert-butoxybenzene-1-sulfonyl)-6-(dimethylamino)-1-benzofuran-2-carboxamide] are 8.44e-08 M, over 20000 nM, 51 nM, 7.16 and 7.07.

The record behind these values is US12357603B2, “Acyl sulfonamides for treating cancer” (Bayer Aktiengesellschaft, priority 2019, dated 2025).
